Earlier results on two molecules are cited in patent publication US10653683B2, “Tiotropium inhalation solution for nebulization” (GLENMARK SPECIALTY S.A., priority 2016, dated 2020).

The conditions of data set [1]: relative to histamine.

As to benzalkonium chloride, the “Bronchoconstrictor properties, times less potent than histamine” value in data set [1] is reported as 7.4 times.
As to `C[N+]1(C)C2CC(OC(=O)C(O)(c3cccs3)c3cccs3)CC1C1OC12` (stereo not drawn) [Tiotropium bromide monohydrate, (1α, 2ß, 4ß, 5α, 7ß)-7-[(hydroxydi-2-thienylacetyl)oxy]-9,9-dimethyl-3-oxa-9-azoniatricyclo [3.3.1.02, 4] nonane bromide monohydrate], the Solubility in methanol entry (methanol) is recorded as “soluble”. The Solubility in water result (water) is “sparingly soluble”.
